These results are taken from US10131644B2, “Aryl sultam derivatives as RORc modulators” (Genentech, Inc., priority 2014, dated 2018).

Each structure is given as a SMILES string.

The target in the test is T1, RORc (Homo sapiens, UniProt P51449).
T1 sequence (P51449 269-508 limits assumed): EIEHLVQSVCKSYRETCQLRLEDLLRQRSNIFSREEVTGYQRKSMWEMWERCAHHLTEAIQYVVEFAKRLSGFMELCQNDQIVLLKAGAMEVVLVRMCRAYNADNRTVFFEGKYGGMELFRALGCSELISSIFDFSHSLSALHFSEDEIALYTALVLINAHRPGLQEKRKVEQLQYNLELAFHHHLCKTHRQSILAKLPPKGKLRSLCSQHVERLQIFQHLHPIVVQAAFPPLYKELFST
In words: In vitro RORc ligand binding assay (25-[3H]hydroxycholesterol displacement). To be noted: IC50, IC50 values for RORc; unit inferred.
Method: This assay was used to determine a compound's potency in inhibiting activity of RORc by determining, Kiapp, IC50, or percent inhibition values.
On day of the assay, 100 uL of 0.05% CHAPS (in deionized H2O) was added to all wells of the GFB Unifilter plate and allowed soak for 1 h. A wash buffer of 50 mM HEPES (pH 7.4), 150 mM NaCl, and 5 mM MgCl2 was prepared to wash the filter plate. To prepare an assay buffer, BSA was added to the wash buffer to reach 0.01% and DTT was added to reach 1 mM.
The 20× compound stocks were diluted in DMSO with Assay Buffer 4-fold to reach 5× the final test concentration in 25% DMSO (10 uL compound+30 uL Assay Buffer). Solutions were mixed by aspiration several times with a pipette set on 50 uL volume. For the assay, 10 uL of 5× compound stock solutions in 25% DMSO were added to the assay plate in duplicate.
For two point screening, 10 mM stock compound solutions were diluted in DMSO to obtain 200 uM (20× the high test concentration) and then diluted 10-fold further to reach 20 uM (20× the low test concentration). The 20× stocks were diluted 4-fold with Assay Buffer (10 uL compound+30 uL Assay Buffer) to reach 5× the test concentrations (50 uM and 5 uM) and 10 uL were added to two assay plates for the duplicate wells. With each concentration tested on 2 plates, each set of 80 compounds used 4 assay plates (1 uM and 10 uM, with n=2).
For 25-hydroxycholesterol in 25% DMSO/75% Assay Buffer; 10 uL per well was used for NSB samples. Wells for Total Binding and No Receptor sample determination contained 10 uL of 25% DMSO/75% Assay Buffer per well.
Add 20 uL to all wells to reach 6 nM final in the assay.
Stock receptor solution was diluted in assay buffer to obtain 1.5 ug/mL in Assay Buffer. 20 uL was added to all wells. For No R samples, 20 uL Assay Buffer was substituted for receptor solution.
Assay plates were 96-well polypropylene V-bottom plates. 10 uL of 5× compound in 25% DMSO/75% Assay Buffer was added to Test wells. 10 uL of 25% DMSO/75% Assay Buffer was added to Total Binding or No Receptor wells. 10 uL of 5 uM 25-hydroxycholesterol in 25% DMSO/75% Assay Buffer was added to NSB wells. […] 20 uL of 1.5 ug/mL RORc receptor was added to wells (or 40 uL Assay Buffer to No R wells). Following addition to the wells, the plates were incubated 3 h at 25° C.
Using a Packard Filtermate Harvester, the filter plate were washed 4 times following transfer of the incubated samples. Plates were dry-filtered completely (2 h at 50° C. or overnight at room temperature). 50 uL Microscint 0 was added to all wells and read on Topcount protocol Inverted.
For NSB wells, 1 uM 25-hydroxycholesterol was also present.
Turning to `C[C@H]1CC[C@H](c2ccccc2)S(=O)(=O)N1Cc1cc(F)c([C@]2(O)CC[C@@H](n3cnnc3)CC2)cc1F` [Compound 37, 1-[2,5-Difluoro-4-((3S,6R)-3-methyl-1,1-dioxo-6-phenyl-[1,2]thiazinan-2-ylmethyl)-phenyl]-4-[1,2,4]triazol-4-yl-cyclohexanol], the IC50 (usually the point on the concentration scale where inhibition reaches its midpoint) is 20 nM.
To `COCC1(c2ccc(CN3[C@@H](C)CC[C@H](c4ccccc4)S3(=O)=O)c(F)c2)CCOCC1` [Compound 90, (3S,6R)-2-[[2-fluoro-4-[4-(methoxymethyl)tetrahydropyran-4-yl]phenyl]methyl]-3-methyl-6-phenyl-thiazinane 1,1-dioxide] belongs 67 nM.
Molecule `C[C@H]1CC[C@H](c2ccccc2)S(=O)(=O)N1Cc1ccc(C2(C(N)=O)CC2)cc1F` [Compound 196, 1-[3-fluoro-4-[[(3S,6R)-3-methyl-1,1-dioxo-6-phenyl-thiazinan-2-yl]methyl]phenyl]cyclopropanecarboxamide] yielded an IC50 of 1080 nM.
To `CC(=O)N1CCC(O)(c2ccc(CN3[C@@H](C)CC[C@H](c4ccccc4)S3(=O)=O)cc2)CC1` [Example 7, 1-{4-Hydroxy-4-[4-((3S,6R)-3-methyl-1,1-dioxo-6-phenyl-[1,2]thiazinan-2-ylmethyl)-phenyl]-piperidin-1-yl}-ethanone] belongs 330 nM.
For `C[C@H]1CC[C@H](c2ccccc2)S(=O)(=O)N1Cc1ccc(OCC2(C#N)CCOCC2)cc1F` [Example 6, 4-{3-Fluoro-4-((3S,6R)-3-methyl-1,1-dioxo-6-phenyl-[1,2]thiazinan-2-ylmethyl)-phenoxymethyl]-tetrahydro-pyran-4-carbonitrile], the IC50 is 220 nM.
To `C[C@H]1CC[C@H](c2ccccc2)S(=O)(=O)N1Cc1cc(F)c(C2(N[S+]([O-])C(C)(C)C)COC2)cc1F` (stereo partly drawn) [Compound 191, N-[3-[2,5-difluoro-4-[[(3S,6R)-3-methyl-1,1-dioxo-6-phenyl-thiazinan-2-yl]methyl]phenyl]oxetan-3-yl]-2-methyl-propane-2-sulfinamide] belongs 55.3 nM.
`C[C@H]1CC[C@H](c2ccccc2)S(=O)(=O)N1Cc1ccc(C2(CO)CCOCC2)cc1F` [Compound 68, [4-[3-fluoro-4-[[(3S,6R)-3-methyl-1,1-dioxo-6-phenyl-thiazinan-2-yl]methyl]phenyl]tetrahydropyran-4-yl]methanol] came in with an IC50 of 38.5 nM.
To `C[C@H]1CC[C@H](c2ccccc2)S(=O)(=O)N1Cc1ccc(C2(O)CCOCC2)cc1F` [Compound 69, 4-[3-fluoro-4-[[(3S,6R)-3-methyl-1,1-dioxo-6-phenyl-thiazinan-2-yl]methyl]phenyl]tetrahydropyran-4-ol] belongs 93 nM; to `C[C@H]1CC[C@H](c2ccccc2)S(=O)(=O)N1Cc1ccc([C@]2(C(N)=O)C[C@H](O)C2)cc1F` [Compound 182, 1-[3-fluoro-4-[[(3S,6R)-3-methyl-1,1-dioxo-6-phenyl-thiazinan-2-yl]methyl]phenyl]-3-hydroxy-cyclobutanecarboxamide], 37.3 nM; to `CNC(=O)CNC1(c2ccc(CN3[C@@H](C)CC[C@H](c4ccccc4)S3(=O)=O)c(F)c2)CCOCC1` [Compound 173, 2-[[4-[3-fluoro-4-[[(3S,6R)-3-methyl-1,1-dioxo-6-phenyl-thiazinan-2-yl]methyl]phenyl]tetrahydropyran-4-yl]amino]-N-methyl-acetamide], 33.1 nM.
To `C[C@H]1CC[C@H](c2ccccc2)S(=O)(=O)N1Cc1ccc(C2(C#N)CCOCC2)cc1F` [Compound 61, 4-[3-fluoro-4-[[(3S,6R)-3-methyl-1,1-dioxo-6-phenyl-thiazinan-2-yl]methyl]phenyl]tetrahydropyran-4-carbonitrile] belongs 186 nM.
`C[C@H]1CC[C@H](c2ccccc2)S(=O)(=O)N1Cc1ccc(OCC2(C)CCOCC2)cc1F` [Example 2, (3S,6R)-2-[2-Fluoro-4-(4-methyl-tetrahydro-pyran-4-ylmethoxy)-benzyl]-3-methyl-6-phenyl-[1,2]thiazinane 1,1-dioxide] showed an IC50 of 67 nM.
To `C[C@H]1CC[C@@H](c2ccccc2)S(=O)(=O)N1Cc1cc(F)c(C2(CO)CCC(O)CC2)cc1F` (some centres unmarked) [Compound 132] belongs 240 nM.
To `CC(=O)N1CCC(C#N)(c2cc(F)c(CN3[C@@H](C)CC[C@H](c4ccccc4)S3(=O)=O)cc2F)CC1` [Compound 148, 1-acetyl-4-[2,5-difluoro-4-[[(3S,6R)-3-methyl-1,1-dioxo-6-phenyl-thiazinan-2-yl]methyl]phenyl]piperidine-4-carbonitrile] belongs 14.5 nM; to `COC(=O)C1(c2ccc(CN3[C@@H](C)CC[C@H](c4ccccc4)S3(=O)=O)cc2)CCOCC1` [Compound 27, 4-[4-((3S,6R)-3-Methyl-1,1-dioxo-6-phenyl-[1,2]thiazinan-2-ylmethyl)-phenyl]-tetrahydro-pyran-4-carboxylic acid methyl ester], 500 nM.
On to `COC(=O)C1(c2ccc(CN3[C@@H](C)CC[C@H](c4ccccc4)S3(=O)=O)c(F)c2)CCN(C(C)=O)CC1` [Compound 124, methyl 1-acetyl-4-[3-fluoro-4-[[(3S,6R)-3-methyl-1,1-dioxo-6-phenyl-thiazinan-2-yl]methyl]phenyl]piperidine-4-carboxylate], for which the IC50 turned out to be 13 nM.
To `C[C@H]1CC[C@H](c2ccccc2)S(=O)(=O)N1Cc1ccc(C2(C(N)=O)CCOCC2)cc1` [Compound 31, 4-[4-((3S,6R)-3-Methyl-1,1-dioxo-6-phenyl-[1,2]thiazinan-2-ylmethyl)-phenyl]-tetrahydro-pyran-4-carboxylic acid amide] belongs 420 nM; to `COCCOCC1(c2ccc(CN3[C@@H](C)CC[C@H](c4ccccc4)S3(=O)=O)c(F)c2)CCOCC1` [Compound 82, (3S,6R)-2-[[2-fluoro-4-[4-(2-methoxyethoxymethyl)tetrahydropyran-4-yl]phenyl]methyl]-3-methyl-6-phenyl-thiazinane 1,1-dioxide], 70.5 nM.
As to `C[C@H]1CC[C@H](c2ccccc2)S(=O)(=O)N1Cc1ccc(C2(C(=O)NCCN(C)C)CCOCC2)cc1F` [Compound 53, N-[2-(dimethylamino)ethyl]-4-[3-fluoro-4-[[(3S,6R)-3-methyl-1,1-dioxo-6-phenyl-thiazinan-2-yl]methyl]phenyl]tetrahydropyran-4-carboxamide], the IC50 stood at 845 nM.
Turning to `C[C@H]1CC[C@H](c2ccccc2)S(=O)(=O)N1Cc1ccc(C2(OC[C@@H](O)CO)CCOCC2)cc1F` [Compound 119, (2S)-3-[4-[3-fluoro-4-[[(3S,6R)-3-methyl-1,1-dioxo-6-phenyl-thiazinan-2-yl]methyl]phenyl]tetrahydropyran-4-yl]oxypropane-1,2-diol], the IC50 turned out to be 27.4 nM.
Take `C[C@H]1CC[C@H](c2ccccc2)S(=O)(=O)N1Cc1ccc(C2(CC#N)CCOCC2)cc1F` [Compound 77, 2-[4-[3-fluoro-4-[[(3S,6R)-3-methyl-1,1-dioxo-6-phenyl-thiazinan-2-yl]methyl]phenyl]tetrahydropyran-4-yl]acetonitrile]: the IC50 amounted to 31.2 nM.
To `C[C@H]1CC[C@H](c2ccccc2)S(=O)(=O)N1Cc1ccc(C2(CCCO)CCOCC2)cc1F` [Compound 81, 3-[4-[3-fluoro-4-[[(3S,6R)-3-methyl-1,1-dioxo-6-phenyl-thiazinan-2-yl]methyl]phenyl]tetrahydropyran-4-yl]propan-1-ol] belongs 6.2 nM; to `C[C@H]1CC[C@H](c2ccccc2)S(=O)(=O)N1Cc1ccc(C2(NCCO)CCOCC2)cc1F` [Compound 106, 2-[[4-[3-fluoro-4-[[(3S,6R)-3-methyl-1,1-dioxo-6-phenyl-thiazinan-2-yl]methyl]phenyl]tetrahydropyran-4-yl]amino]ethanol], 137 nM; to `CC(=O)N1CCC(F)(c2ccc(CN3[C@@H](C)CC[C@H](c4ccccc4)S3(=O)=O)cc2)CC1` [Example 8, 1-{4-Fluoro-4-[4-((3S,6R)-3-methyl-1,1-dioxo-6-phenyl-[1,2]thiazinan-2-ylmethyl)-phenyl]-piperidin-1-yl}-ethanone], 200 nM.
To `C[C@H]1CC[C@H](c2ccccc2)S(=O)(=O)N1Cc1cc(F)c(C2(OCC(O)CO)CCOCC2)cc1F` (stereo in doubt) [Compound 171, (2R)-3-[4-[2,5-difluoro-4-[[(3S,6R)-3-methyl-1,1-dioxo-6-phenyl-thiazinan-2-yl]methyl]phenyl]tetrahydropyran-4-yl]oxypropane-1,2-diol] belongs 11.6 nM; to `C[C@H]1CC[C@H](c2ccccc2)S(=O)(=O)N1Cc1ccc(C2(CNC(=O)OC(C)(C)C)CCOCC2)cc1F` [Compound 74, tert-butyl N-[[4-[3-fluoro-4-[[(3S,6R)-3-methyl-1,1-dioxo-6-phenyl-thiazinan-2-yl]methyl]phenyl]tetrahydropyran-4-yl]methyl]carbamate], 141 nM.
The molecule `C[C@H]1CC[C@H](c2ccccc2)S(=O)(=O)N1Cc1cc(F)c(C2(OCC(=O)N(C)CCO)CCOCC2)cc1F` [Compound 157, 2-[4-[2,5-difluoro-4-[[(3S,6R)-3-methyl-1,1-dioxo-6-phenyl-thiazinan-2-yl]methyl]phenyl]tetrahydropyran-4-yl]oxy-N-(2-hydroxyethyl)-N-methyl-acetamide] yielded a concentration for half-maximal inhibition (IC50) of 47.2 nM.
For the molecule `C[C@H]1CCC(c2ccccc2)S(=O)(=O)N1Cc1ccc(C2(C(=O)O)CCOCC2)cc1` (stereo partly drawn) [Compound 29, 4-[4-((S)-3-Methyl-1,1-dioxo-6-phenyl-[1,2]thiazinan-2-ylmethyl)-phenyl]-tetrahydro-pyran-4-carboxylic acid], the IC50 amounted to 4400 nM.
For the molecule `CC(=O)NCCNC(=O)C1(c2ccc(CN3[C@@H](C)CC[C@H](c4ccccc4)S3(=O)=O)c(F)c2)CCOCC1` [Compound 50, N-(2-acetamidoethyl)-4-[3-fluoro-4-[[(3S,6R)-3-methyl-1,1-dioxo-6-phenyl-thiazinan-2-yl]methyl]phenyl]tetrahydropyran-4-carboxamide], the IC50 turned out to be 250 nM.
